Experimental data published in ChEMBL document CHEMBL5357068, “Discovery of Novel TLR7 Agonists as Systemic Agent for Combination With aPD1 for Use in Immuno-oncology” (ACS Med Chem Lett, 2024).
Active and inactive are the calls of the source. No cut-off for these calls is given here.

Assays:
[1] = tested on: Blood; assay: Induction of IFIT1 secretion in human whole blood; format: functional, tissue-based
[2] = tested on: CT26; assay: Antitumor activity against mouse CT26 cells implanted in Balb/cAnNHsd mouse administered intraperitoneally once a week for 4 weeks in the presence of aPD1 antibody; format: functional; settings: dose lower […], dose upper […], route ip
[3] = tested on: Mus musculus; assay: Induction of IFN-alpha production in Balb/c mouse serum at […], iv measured after 6 hrs by ELISA analysis; format: functional, organism-based
[4] = tested on: Blood; assay: Induction of TNF-alpha secretion in mouse whole blood; format: functional, tissue-based
[5] = tested on: Blood; assay: Induction of TNF-alpha secretion in human whole blood; format: functional, tissue-based
[6] = Drug concentration in Balb/c mouse at […], iv measured after 5 min by LC-MS analysis; format: ADME, organism-based; settings: in vivo, dose 0.15 mg/kg, read-out: Drug uptake
[7] = biological target: Toll-like receptor 2 (Homo sapiens) (UniProt O60603); assay: Agonist activity at human TLR2
Sequence of Toll-like receptor 2 (Homo sapiens) (O60603 whole entry): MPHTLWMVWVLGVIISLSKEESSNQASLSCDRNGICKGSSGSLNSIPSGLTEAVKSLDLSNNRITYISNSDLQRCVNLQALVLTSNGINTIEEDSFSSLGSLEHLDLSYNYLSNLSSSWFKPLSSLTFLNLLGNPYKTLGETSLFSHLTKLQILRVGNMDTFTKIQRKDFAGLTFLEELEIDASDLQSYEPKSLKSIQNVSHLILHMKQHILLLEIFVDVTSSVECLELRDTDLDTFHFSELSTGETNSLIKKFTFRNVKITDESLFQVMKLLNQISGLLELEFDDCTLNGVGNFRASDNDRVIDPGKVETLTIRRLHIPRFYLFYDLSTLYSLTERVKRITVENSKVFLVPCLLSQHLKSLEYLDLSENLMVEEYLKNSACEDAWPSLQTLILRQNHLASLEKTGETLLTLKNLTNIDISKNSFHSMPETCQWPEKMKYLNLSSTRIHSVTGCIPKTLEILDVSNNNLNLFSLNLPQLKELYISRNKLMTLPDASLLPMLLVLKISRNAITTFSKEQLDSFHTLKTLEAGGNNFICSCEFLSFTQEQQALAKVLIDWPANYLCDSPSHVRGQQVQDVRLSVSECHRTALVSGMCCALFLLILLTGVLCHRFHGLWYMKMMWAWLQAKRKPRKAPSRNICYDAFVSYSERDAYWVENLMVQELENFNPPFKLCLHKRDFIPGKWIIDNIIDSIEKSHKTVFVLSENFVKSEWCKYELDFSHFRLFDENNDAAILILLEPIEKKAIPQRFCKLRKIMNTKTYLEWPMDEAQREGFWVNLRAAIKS

[8] = biological target: T1, Toll-like receptor 9 (Homo sapiens) (UniProt Q9NR96); assay: Agonist activity at human TLR9
T1 sequence (whole entry): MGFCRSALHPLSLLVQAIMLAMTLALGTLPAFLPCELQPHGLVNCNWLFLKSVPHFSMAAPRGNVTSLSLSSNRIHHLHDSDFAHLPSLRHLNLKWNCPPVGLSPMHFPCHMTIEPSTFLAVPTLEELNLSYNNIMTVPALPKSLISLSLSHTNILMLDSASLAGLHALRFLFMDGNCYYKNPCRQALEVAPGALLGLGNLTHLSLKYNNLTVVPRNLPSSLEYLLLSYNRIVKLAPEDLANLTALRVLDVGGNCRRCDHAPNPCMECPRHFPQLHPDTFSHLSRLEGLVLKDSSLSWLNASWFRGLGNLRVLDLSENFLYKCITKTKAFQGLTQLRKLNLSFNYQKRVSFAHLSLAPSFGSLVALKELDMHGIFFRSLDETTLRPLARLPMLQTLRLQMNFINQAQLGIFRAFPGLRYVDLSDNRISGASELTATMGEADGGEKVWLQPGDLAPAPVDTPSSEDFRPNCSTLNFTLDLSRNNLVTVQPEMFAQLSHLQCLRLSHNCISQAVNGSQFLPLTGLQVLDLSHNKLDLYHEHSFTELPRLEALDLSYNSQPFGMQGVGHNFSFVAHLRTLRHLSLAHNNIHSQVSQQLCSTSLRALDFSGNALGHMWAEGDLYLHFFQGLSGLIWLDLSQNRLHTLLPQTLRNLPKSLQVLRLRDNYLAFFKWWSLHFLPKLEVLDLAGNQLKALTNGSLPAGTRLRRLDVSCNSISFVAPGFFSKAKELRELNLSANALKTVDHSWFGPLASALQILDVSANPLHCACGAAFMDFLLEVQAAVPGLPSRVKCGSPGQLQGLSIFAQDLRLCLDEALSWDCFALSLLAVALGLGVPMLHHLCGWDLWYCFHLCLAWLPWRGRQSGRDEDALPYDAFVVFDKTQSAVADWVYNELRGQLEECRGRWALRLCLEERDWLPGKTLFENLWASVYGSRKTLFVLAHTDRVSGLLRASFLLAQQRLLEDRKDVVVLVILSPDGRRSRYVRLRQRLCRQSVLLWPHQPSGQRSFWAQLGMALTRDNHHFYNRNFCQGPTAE

[9] = Permeability of compound across apical to basolateral side in human Caco-2 cells; format: ADME, cell-based; settings: read-out: permeability
[10] = Metabolic stability in cynomolgus monkey liver microsomes assessed as half-life; format: ADME, Macaca fascicularis, Microsome
[11] = Drug concentration in Balb/c mouse at 0.5 mg/kg, iv measured after 5 min by LC-MS analysis; format: ADME, organism-based; settings: in vivo, read-out: Drug uptake
[12] = tested on: Blood; assay: Induction of IFIT3 secretion in mouse whole blood; format: functional, tissue-based
[13] = tested on: Jurkat; assay: Cytotoxicity against human Jurkat cells; format: toxicity, cell-based
[14] = biological target: T2, Toll-like receptor 8 (Homo sapiens) (UniProt Q9NR97); assay: Agonist activity at human TLR8
T2 sequence (whole entry): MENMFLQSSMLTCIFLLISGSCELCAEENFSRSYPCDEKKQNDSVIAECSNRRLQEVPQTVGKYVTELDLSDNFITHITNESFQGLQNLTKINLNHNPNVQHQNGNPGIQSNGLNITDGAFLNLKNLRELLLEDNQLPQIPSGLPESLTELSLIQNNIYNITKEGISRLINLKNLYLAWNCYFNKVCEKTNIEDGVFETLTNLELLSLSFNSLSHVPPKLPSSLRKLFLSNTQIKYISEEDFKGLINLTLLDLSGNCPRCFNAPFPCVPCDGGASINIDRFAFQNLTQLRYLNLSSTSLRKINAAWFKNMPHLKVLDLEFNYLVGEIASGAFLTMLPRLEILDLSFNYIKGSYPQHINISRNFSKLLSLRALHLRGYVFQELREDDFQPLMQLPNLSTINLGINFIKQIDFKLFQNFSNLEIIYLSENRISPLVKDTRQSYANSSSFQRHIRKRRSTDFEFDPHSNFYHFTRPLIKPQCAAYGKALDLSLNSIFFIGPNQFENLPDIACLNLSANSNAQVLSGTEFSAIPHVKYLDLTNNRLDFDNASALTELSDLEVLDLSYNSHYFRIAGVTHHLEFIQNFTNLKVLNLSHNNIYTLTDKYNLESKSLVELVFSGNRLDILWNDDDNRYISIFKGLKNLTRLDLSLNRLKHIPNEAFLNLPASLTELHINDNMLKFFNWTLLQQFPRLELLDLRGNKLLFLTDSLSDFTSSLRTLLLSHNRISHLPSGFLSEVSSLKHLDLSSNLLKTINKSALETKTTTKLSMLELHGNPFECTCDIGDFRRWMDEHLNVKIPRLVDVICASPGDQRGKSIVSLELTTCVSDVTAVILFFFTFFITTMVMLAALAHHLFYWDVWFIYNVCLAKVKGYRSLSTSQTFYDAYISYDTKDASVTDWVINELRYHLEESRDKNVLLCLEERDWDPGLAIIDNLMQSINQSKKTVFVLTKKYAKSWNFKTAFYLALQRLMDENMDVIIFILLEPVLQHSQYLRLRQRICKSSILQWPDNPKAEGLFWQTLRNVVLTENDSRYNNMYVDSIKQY

[15] = tested on: CT26; assay: Cytotoxicity against mouse CT26 cells; format: toxicity, cell-based
[16] = tested on: Blood; assay: Induction of MX1 secretion in mouse whole blood; format: functional, tissue-based
[17] = Metabolic stability in human liver microsomes assessed as half-life; format: ADME, Microsome
[18] = Permeability of compound across basolateral to apical side in human Caco-2 cells; format: ADME, cell-based; settings: read-out: permeability
[19] = tested on: Blood; assay: Induction of MX1 secretion in human whole blood; format: functional, tissue-based
[20] = AUClast in Balb/c mouse at […], iv measured after 2 hrs by LC-MS analysis; format: ADME, organism-based; set-up: time 2 hrs, dose 0.15 mg/kg, route iv; settings: in vivo
[21] = Inhibition of GPCR (unknown origin); set-up: species or system Homo sapiens
[22] = Permeability of compound at pH 7.4 by PAMPA; format: ADME; settings: read-out: permeability
[23] = tested on: Blood; assay: Induction of IFIT1 secretion in mouse whole blood; format: functional, tissue-based
[24] = Metabolic stability in mouse liver microsomes assessed as half-life; format: ADME, Microsome
[25] = tested on: Mus musculus; assay: Induction of IFN-alpha production in iv dosed Balb/c mouse serum measured after 6 hrs by ELISA analysis; format: functional, organism-based; settings: dose lower […], dose upper 0.5 mg/kg

## CCC[C@@H](CCO)Nc1nc(N)nc2cnn(Cc3ccc(CNC4CCOCC4)cc3OC)c12
[1]
  EC50: 0.1 nM
[2]
  Activity: Dose-Dependent Effect
[3]
  Activity: inactive
[4]
  EC50: 3.4 nM
[5]
  EC50: 631 nM
[6]
  concentration at 5 min: 85 nM
[7]
  EC: > 5 µM
[8]
  EC: > 5 µM
[9]
  Papp A→B: 1.4 ×10⁻⁶ cm/s
[10]
  half-life: 16 min
[11]
  concentration at 5 min: 139 nM
[12]
  EC50: 0.13 nM
[13]
  EC: > 25 µM
[14]
  EC: > 5 µM
[15]
  EC: > 25 µM
[16]
  EC50: 0.18 nM
[17]
  half-life: 43 min
[18]
  Papp B→A: 10.9 ×10⁻⁶ cm/s
[19]
  EC50: 0.09 nM
[20]
  AUC(0-t) at 2 h: 0.075 µM·h
[21]
  IC50: > 30000 nM
[22]
  Papp: 1.58 ×10⁻⁶ cm/s
[23]
  EC50: 0.19 nM
[24]
  half-life: 85 min
[25]
  Activity: Dose-Dependent Effect
